Starred links: 1 amine or outer side, 2 acyl side, 3 side chain; linkers in the order of their positions; H or OH if unused. Positions of bridges follow the written chain, without caps; N, C: chain ends. Non-standard residues stand in square brackets, D forms with d. Residues, ends and D or L forms follow the SMILES beside them. Triazole bridges read from a SMILES are 1,4-linked. Aha = [N-]=[N+]=NCC[C@H](N)C(=O)O; Pra = C#CC[C@H](N)C(=O)O; Dap = NC[C@H](N)C(=O)O; CH2 = C([*:1])[*:2]
Target: Neuronal acetylcholine receptor; alpha9/alpha10 (Homo sapiens) (UniProt Q9UGM1+Q9GZZ6)
Experiment: Antagonist activity at human alpha9alpha10 nAChR expressed in acetylcholine-induced Xenopus laevis oocytes assessed as inhibition of acetylcholine-induced current at 10 nM at -80 mV holding potential incubated for 5 mins by two electrode voltage-clamp assay relative to control
Type: cell-based
Conditions: Oocyte

SMILES	inhibition [%]
CC[C@H](C)[C@@H]1NC(=O)[C@H](CC(=O)O)NC(=O)[C@@H]2CCCN2C(=O)[C@H](CC(N)=O)NC(=O)[C@H](CC(N)=O)NC(=O)[C@H](C(C)C)NC(=O)[C@H](CO)NC(=O)[C@@H]2CSSC[C@@H]3NC(=O)CNC(=O)[C@@H](N)CCNC(=O)CC[C@@H](C(N)=O)NC(=O)[C@H](CSSC[C@H](NC3=O)C(=O)N[C@@H](CN)C(=O)N[C@@H](Cc3cnc[nH]3)C(=O)N3CCC[C@H]3C(=O)N[C@@H](C)C(=O)N2)NC1=O (HELM PEPTIDE1{[Dab].G.C.C.[NC[C@H](N[*:1])C(=O)[*:2]].H.P.A.C.S.V.N.N.P.D.I.C.E.[am]}$PEPTIDE1,PEPTIDE1,1:R3-18:R3|PEPTIDE1,PEPTIDE1,3:R3-9:R3|PEPTIDE1,PEPTIDE1,4:R3-17:R3$$$V2.0)	< 5
CC[C@H](C)[C@@H]1NC(=O)[C@H](CC(=O)O)NC(=O)[C@@H]2CCCN2C(=O)[C@H](CC(N)=O)NC(=O)[C@H](CC(N)=O)NC(=O)[C@H](C(C)C)NC(=O)[C@H](CO)NC(=O)[C@@H]2CSSC[C@@H]3NC(=O)CNC(=O)[C@@H](N)CCNC(=O)C[C@@H](C(N)=O)NC(=O)[C@H](CSSC[C@H](NC3=O)C(=O)N[C@@H](CN)C(=O)N[C@@H](Cc3cnc[nH]3)C(=O)N3CCC[C@H]3C(=O)N[C@@H](C)C(=O)N2)NC1=O (HELM PEPTIDE1{[Dab].G.C.C.[NC[C@H](N[*:1])C(=O)[*:2]].H.P.A.C.S.V.N.N.P.D.I.C.D.[am]}$PEPTIDE1,PEPTIDE1,1:R3-18:R3|PEPTIDE1,PEPTIDE1,3:R3-9:R3|PEPTIDE1,PEPTIDE1,4:R3-17:R3$$$V2.0)	< 5
CC[C@H](C)[C@@H]1NC(=O)[C@H](CC(=O)O)NC(=O)[C@@H]2CCCN2C(=O)[C@H](CC(N)=O)NC(=O)[C@H](CC(N)=O)NC(=O)[C@H](C(C)C)NC(=O)[C@H](CO)NC(=O)[C@@H]2CSSC[C@H](NC(=O)CN)C(=O)N[C@@H](Cc3cn(nn3)CC[C@@H](C(N)=O)NC1=O)C(=O)N[C@@H](CN)C(=O)N[C@@H](Cc1cnc[nH]1)C(=O)N1CCC[C@H]1C(=O)N[C@@H](C)C(=O)N2 (H-GC[Pra][Dap]HPACSVNNPDI[Aha]-NH2; disulfide 2-8; triazole 3-16)	< 15
CC[C@H](C)[C@@H]1NC(=O)[C@H](CC(=O)O)NC(=O)[C@@H]2CCCN2C(=O)[C@H](CC(N)=O)NC(=O)[C@H](CC(N)=O)NC(=O)[C@H](C(C)C)NC(=O)[C@H](CO)NC(=O)[C@@H]2CSCSC[C@@H]3NC(=O)CNC(=O)[C@@H](N)CCC(=O)NCC[C@@H](C(N)=O)NC(=O)[C@H](CSSC[C@H](NC3=O)C(=O)N[C@@H](CN)C(=O)N[C@@H](Cc3cnc[nH]3)C(=O)N3CCC[C@H]3C(=O)N[C@@H](C)C(=O)N2)NC1=O (HELM PEPTIDE1{E.G.C.C.[NC[C@H](N[*:1])C(=O)[*:2]].H.P.A.C.S.V.N.N.P.D.I.C.[Dab].[am]}|CHEM1{[C([*:1])[*:2]]}$PEPTIDE1,PEPTIDE1,1:R3-18:R3|PEPTIDE1,CHEM1,3:R3-1:R1|PEPTIDE1,CHEM1,9:R3-1:R2|PEPTIDE1,PEPTIDE1,4:R3-17:R3$$$V2.0)	< 5
CC[C@H](C)[C@@H]1NC(=O)[C@H](CC(=O)O)NC(=O)[C@@H]2CCCN2C(=O)[C@H](CC(N)=O)NC(=O)[C@H](CC(N)=O)NC(=O)[C@H](C(C)C)NC(=O)[C@H](CO)NC(=O)[C@@H]2CSSC[C@H](NC(=O)CN)C(=O)N[C@@H](CCn3cc(nn3)C[C@@H](C(N)=O)NC1=O)C(=O)N[C@@H](CN)C(=O)N[C@@H](Cc1cnc[nH]1)C(=O)N1CCC[C@H]1C(=O)N[C@@H](C)C(=O)N2 (H-GC[Aha][Dap]HPACSVNNPDI[Pra]-NH2; disulfide 2-8; triazole 3-16)	< 15
CC[C@H](C)[C@@H]1NC(=O)[C@H](CC(=O)O)NC(=O)[C@@H]2CCCN2C(=O)[C@H](CC(N)=O)NC(=O)[C@H](CC(N)=O)NC(=O)[C@H](C(C)C)NC(=O)[C@H](CO)NC(=O)[C@@H]2CSSC[C@H](NC(=O)CN)C(=O)N[C@@H](CCC(=O)NCC[C@@H](C(N)=O)NC1=O)C(=O)N[C@@H](CN)C(=O)N[C@@H](Cc1cnc[nH]1)C(=O)N1CCC[C@H]1C(=O)N[C@@H](C)C(=O)N2 (HELM PEPTIDE1{G.C.E.[NC[C@H](N[*:1])C(=O)[*:2]].H.P.A.C.S.V.N.N.P.D.I.[Dab].[am]}$PEPTIDE1,PEPTIDE1,2:R3-8:R3|PEPTIDE1,PEPTIDE1,3:R3-16:R3$$$V2.0)	< 5
CC[C@H](C)[C@@H]1NC(=O)[C@H](CC(=O)O)NC(=O)[C@@H]2CCCN2C(=O)[C@H](CC(N)=O)NC(=O)[C@H](CC(N)=O)NC(=O)[C@H](C(C)C)NC(=O)[C@H](CO)NC(=O)[C@@H]2CSSC[C@H](NC(=O)CN)C(=O)N[C@@H](CCNC(=O)C[C@@H](C(N)=O)NC1=O)C(=O)N[C@@H](CN)C(=O)N[C@@H](Cc1cnc[nH]1)C(=O)N1CCC[C@H]1C(=O)N[C@@H](C)C(=O)N2 (HELM PEPTIDE1{G.C.[Dab].[NC[C@H](N[*:1])C(=O)[*:2]].H.P.A.C.S.V.N.N.P.D.I.D.[am]}$PEPTIDE1,PEPTIDE1,2:R3-8:R3|PEPTIDE1,PEPTIDE1,3:R3-16:R3$$$V2.0)	< 5

Same assay, conditions: Oocyte, filed as antagonist

SMILES	inhibition [%]
CC[C@H](C)[C@@H]1NC(=O)[C@H](CC(=O)O)NC(=O)[C@@H]2CCCN2C(=O)[C@H](CC(N)=O)NC(=O)[C@H](CC(N)=O)NC(=O)[C@H](C(C)C)NC(=O)[C@H](CO)NC(=O)[C@@H]2CSSC[C@@H]3NC(=O)CNC(=O)CNC(=O)[C@H](C)NC(=O)CNC(=O)[C@H](C)NC(=O)[C@H](C)NC(=O)CNC(=O)CNC(=O)[C@H](CSSC[C@H](NC3=O)C(=O)N[C@@H](CN)C(=O)N[C@@H](Cc3cnc[nH]3)C(=O)N3CCC[C@H]3C(=O)N[C@@H](C)C(=O)N2)NC1=O (HELM PEPTIDE1{A.A.G.A.G.G.C.C.[NC[C@H](N[*:1])C(=O)[*:2]].H.P.A.C.S.V.N.N.P.D.I.C.G.G}$PEPTIDE1,PEPTIDE1,7:R3-13:R3|PEPTIDE1,PEPTIDE1,8:R3-21:R3|PEPTIDE1,PEPTIDE1,1:R1-23:R2$$$V2.0)	> 85

System: not listed separately
Experiment: Stability in human serum assessed as parent compound remaining incubated at 24 hrs by RP-HPLC analysis
Type: ADME, cell-free
Conditions: human serum, read-out: Stability

SMILES	remaining at 24 h [%]
CC[C@H](C)[C@@H]1NC(=O)[C@H](CC(=O)O)NC(=O)[C@@H]2CCCN2C(=O)[C@H](CC(N)=O)NC(=O)[C@H](CC(N)=O)NC(=O)[C@H](C(C)C)NC(=O)[C@H](CO)NC(=O)[C@@H]2CSSC[C@@H]3NC(=O)CNC(=O)CNC(=O)[C@H](C)NC(=O)CNC(=O)[C@H](C)NC(=O)[C@H](C)NC(=O)CNC(=O)CNC(=O)[C@H](CSSC[C@H](NC3=O)C(=O)N[C@@H](CN)C(=O)N[C@@H](Cc3cnc[nH]3)C(=O)N3CCC[C@H]3C(=O)N[C@@H](C)C(=O)N2)NC1=O (HELM PEPTIDE1{A.A.G.A.G.G.C.C.[NC[C@H](N[*:1])C(=O)[*:2]].H.P.A.C.S.V.N.N.P.D.I.C.G.G}$PEPTIDE1,PEPTIDE1,7:R3-13:R3|PEPTIDE1,PEPTIDE1,8:R3-21:R3|PEPTIDE1,PEPTIDE1,1:R1-23:R2$$$V2.0)	61.7
CC[C@H](C)[C@@H]1NC(=O)[C@H](CC(=O)O)NC(=O)[C@@H]2CCCN2C(=O)[C@H](CC(N)=O)NC(=O)[C@H](CC(N)=O)NC(=O)[C@H](C(C)C)NC(=O)[C@H](CO)NC(=O)[C@@H]2CSCSC[C@@H]3NC(=O)CNC(=O)[C@@H](N)CCC(=O)NC[C@@H](C(N)=O)NC(=O)[C@H](CSSC[C@H](NC3=O)C(=O)N[C@@H](CN)C(=O)N[C@@H](Cc3cnc[nH]3)C(=O)N3CCC[C@H]3C(=O)N[C@@H](C)C(=O)N2)NC1=O (H-EGCC[Dap]HPACSVNNPDIC[Dap]-NH2; lactam 1-18; linker 3-9 via CH2; disulfide 4-17)	57.3
CC[C@H](C)[C@@H]1NC(=O)[C@H](CC(=O)O)NC(=O)[C@@H]2CCCN2C(=O)[C@H](CC(N)=O)NC(=O)[C@H](CC(N)=O)NC(=O)[C@H](C(C)C)NC(=O)[C@H](CO)NC(=O)[C@@H]2CSSC[C@H](NC(=O)CN)C(=O)N[C@@H](CCC(=O)NC[C@@H](C(N)=O)NC1=O)C(=O)N[C@@H](CN)C(=O)N[C@@H](Cc1cnc[nH]1)C(=O)N1CCC[C@H]1C(=O)N[C@@H](C)C(=O)N2 (HELM PEPTIDE1{G.C.E.[NC[C@H](N[*:1])C(=O)[*:2]].H.P.A.C.S.V.N.N.P.D.I.[O=C([C@H](CN[*:3])N[*:1])[*:2]].[am]}$PEPTIDE1,PEPTIDE1,2:R3-8:R3|PEPTIDE1,PEPTIDE1,3:R3-16:R3$$$V2.0)	57.3
